# Data published in PMC4867616, “Imaging of Cerebral Amyloid Angiopathy with Bivalent ^99mTc-Hydroxamamide Complexes” (Scientific Reports, 2016).
# Where “and” joins values, the source holds several entries; their conditions need not be identical. Equal values may be shown once.
# Legend:
# [1] = Ex vivo biodistribution in normal mice; design: species or system ddY mice; settings: i.v., mean (SD), 5 animals
# Procedure: To evaluate brain uptake of ^99mTc-Ham complexes, biodistribution experiments of ^99mTc-Ham complexes were performed in normal mice. We selected ^18F-florbetapir as a control and compared the results of ^99mTc-Ham complexes with that of ^18F-florbetapir (Fig. 2). The brain uptake of [^99mTc]SB1A, [^99mTc]SB2A, [^99mTc]BT1B, and [^99mTc]BT2B at 2 min postinjection was 0.37, 0.28, 0.36, and 0.37% injected dose (ID)/g, respectively. The radioactivity in the brains remained low until 60 min postinjection. The results of the biodistribution study are shown in Table S1 in Supplementary information.
# A saline solution (100 μL) of ^99mTc-Ham complexes (20 kBq) containing EtOH (10 μL) was injected directly into the tail vein of ddY mice (male, 5 weeks old). The mice were sacrificed at 2, 10, 30, and 60 min postinjection. The organs of interest were removed and weighed, and radioactivity was measured using a γ counter (PerkinElmer). The %ID/g of samples was calculated by comparing the sample counts with the count of the diluted initial dose.
# *Corresponding author: M. Ono. Address: 46-29 Yoshida Shimoadachi-cho, Sakyo-ku, Kyoto 606-8501, Japan, Phone: +81-75-753-4608, Fax: +81-75-753-4568, E-mail: ono@pharm.kyoto-u.ac.jp. Ex vivo biodistribution in normal mice. A saline solution (100 μL) of ^99mTc-Ham complexes (20 kBq) containing EtOH (10 μL) was injected directly into the tail vein of ddY mice (male, 5 weeks old). The mice were sacrificed at 2, 10, 30, and 60 min postinjection. The organs of interest were removed and weighed, and radioactivity was measured using a γ counter (Wallac 1470 Wizard; PerkinElmer, Massachusetts, USA). Percentage dose per organ was calculated by comparing the tissue counts to suitably diluted aliquots of the injected material. The %dose/g of samples was calculated by comparing the sample counts with the count of the diluted initial dose.
# [2] = biological target: Aβ; design: method as in PMID 12801237, PMID 19837759; settings: order of magnitude only; cited from earlier work
# [3] = normal mice, 2 min postinjection, similar experimental conditions; cited from earlier work
compound,measurement,setting,value
"CN(C)c1ccc(/C=C/c2ccc(C3=N[O][99Tc-]4(=[O])([NH]C(c5ccc(N(C)C)cc5)=N[O]4)[NH2+]3)cc2)cc1 (single isomer, unassigned) [[^99mTc]SB1A]","Biodistribution of radioactivity, Blood",[1]; 2 min after injection,18.89 (4.57) % injected dose per gram
same,"Biodistribution of radioactivity, Brain",[1]; 2 min after injection,0.37 % injected dose per gram and 0.37 (0.05) % injected dose per gram
same,"Biodistribution of radioactivity, Heart",[1]; 2 min after injection,9.48 (2.01) % injected dose per gram
same,"Biodistribution of radioactivity, Intestine",[1]; 2 min after injection,1.94 (0.25) % injected dose per gram
same,"Biodistribution of radioactivity, Kidney",[1]; 2 min after injection,10.74 (2.03) % injected dose per gram
same,"Biodistribution of radioactivity, Liver",[1]; 2 min after injection,28.55 (4.86) % injected dose per gram
same,"Biodistribution of radioactivity, Lung",[1]; 2 min after injection,15.47 (4.14) % injected dose per gram
same,"Biodistribution of radioactivity, Pancreas",[1]; 2 min after injection,4.12 (0.62) % injected dose per gram
same,"Biodistribution of radioactivity, Spleen",[1]; 2 min after injection,9.73 (3.34) % injected dose per gram
same,"Biodistribution of radioactivity, Stomach",[1]; 2 min after injection,1.64 (0.41) % injected dose per organ
same,"Biodistribution of radioactivity, Blood",[1]; 10 min after injection,9.30 (1.96) % injected dose per gram
same,"Biodistribution of radioactivity, Brain",[1]; 10 min after injection,0.19 (0.02) % injected dose per gram
same,"Biodistribution of radioactivity, Heart",[1]; 10 min after injection,6.51 (0.77) % injected dose per gram
same,"Biodistribution of radioactivity, Intestine",[1]; 10 min after injection,4.27 (0.88) % injected dose per gram
same,"Biodistribution of radioactivity, Kidney",[1]; 10 min after injection,9.48 (1.28) % injected dose per gram
same,"Biodistribution of radioactivity, Liver",[1]; 10 min after injection,31.03 (2.29) % injected dose per gram
same,"Biodistribution of radioactivity, Lung",[1]; 10 min after injection,9.67 (0.88) % injected dose per gram
same,"Biodistribution of radioactivity, Pancreas",[1]; 10 min after injection,3.09 (0.38) % injected dose per gram
same,"Biodistribution of radioactivity, Spleen",[1]; 10 min after injection,9.70 (3.03) % injected dose per gram
same,"Biodistribution of radioactivity, Stomach",[1]; 10 min after injection,4.54 (0.97) % injected dose per organ
same,"Biodistribution of radioactivity, Blood",[1]; 30 min after injection,6.06 (0.29) % injected dose per gram
same,"Biodistribution of radioactivity, Brain",[1]; 30 min after injection,0.16 (0.03) % injected dose per gram
same,"Biodistribution of radioactivity, Heart",[1]; 30 min after injection,2.98 (0.63) % injected dose per gram
same,"Biodistribution of radioactivity, Intestine",[1]; 30 min after injection,7.06 (1.67) % injected dose per gram
same,"Biodistribution of radioactivity, Kidney",[1]; 30 min after injection,6.18 (0.84) % injected dose per gram
same,"Biodistribution of radioactivity, Liver",[1]; 30 min after injection,20.17 (3.18) % injected dose per gram
same,"Biodistribution of radioactivity, Lung",[1]; 30 min after injection,5.31 (0.67) % injected dose per gram
same,"Biodistribution of radioactivity, Pancreas",[1]; 30 min after injection,1.74 (0.33) % injected dose per gram
same,"Biodistribution of radioactivity, Spleen",[1]; 30 min after injection,7.86 (1.11) % injected dose per gram
same,"Biodistribution of radioactivity, Stomach",[1]; 30 min after injection,10.28 (2.03) % injected dose per organ
same,"Biodistribution of radioactivity, Blood",[1]; 60 min after injection,2.71 (0.14) % injected dose per gram
same,"Biodistribution of radioactivity, Brain",[1]; 60 min after injection,0.08 (0.00) % injected dose per gram
same,"Biodistribution of radioactivity, Heart",[1]; 60 min after injection,4.30 (0.14) % injected dose per gram
same,"Biodistribution of radioactivity, Intestine",[1]; 60 min after injection,14.34 (2.35) % injected dose per gram
same,"Biodistribution of radioactivity, Kidney",[1]; 60 min after injection,9.66 (0.18) % injected dose per gram
same,"Biodistribution of radioactivity, Liver",[1]; 60 min after injection,22.16 (2.20) % injected dose per gram
same,"Biodistribution of radioactivity, Lung",[1]; 60 min after injection,5.14 (0.29) % injected dose per gram
same,"Biodistribution of radioactivity, Pancreas",[1]; 60 min after injection,2.67 (0.07) % injected dose per gram
same,"Biodistribution of radioactivity, Spleen",[1]; 60 min after injection,5.44 (0.49) % injected dose per gram
same,"Biodistribution of radioactivity, Stomach",[1]; 60 min after injection,6.63 (1.12) % injected dose per organ
"CNc1ccc(/C=C/c2ccc(OCCOCCOCCF)nc2)cc1 [[^18F]florbetapir, reference compound]",Kd,[2],nM order
same,Initial brain uptake,[3],4.90 %ID/g
CN(C)c1ccc(C2=N[O][99Tc-]3(=[O])([NH]2)[NH2+]C(c2ccc4nc(-c5ccc(N(C)C)cc5)sc4c2)=N[O]3)cc1 [[^99mTc]BT1B],"Biodistribution of radioactivity, Blood",[1]; 2 min after injection,18.61 (2.47) % injected dose per gram
same,"Biodistribution of radioactivity, Brain",[1]; 2 min after injection,0.36 % injected dose per gram and 0.36 (0.03) % injected dose per gram
same,"Biodistribution of radioactivity, Heart",[1]; 2 min after injection,5.25 (0.22) % injected dose per gram
same,"Biodistribution of radioactivity, Intestine",[1]; 2 min after injection,0.90 (0.25) % injected dose per gram
same,"Biodistribution of radioactivity, Kidney",[1]; 2 min after injection,5.94 (0.73) % injected dose per gram
same,"Biodistribution of radioactivity, Liver",[1]; 2 min after injection,19.90 (4.06) % injected dose per gram
same,"Biodistribution of radioactivity, Lung",[1]; 2 min after injection,10.87 (2.06) % injected dose per gram
same,"Biodistribution of radioactivity, Pancreas",[1]; 2 min after injection,1.80 (0.28) % injected dose per gram
same,"Biodistribution of radioactivity, Spleen",[1]; 2 min after injection,3.83 (0.84) % injected dose per gram
same,"Biodistribution of radioactivity, Stomach",[1]; 2 min after injection,1.39 (0.21) % injected dose per organ
same,"Biodistribution of radioactivity, Blood",[1]; 10 min after injection,9.34 (2.62) % injected dose per gram
same,"Biodistribution of radioactivity, Brain",[1]; 10 min after injection,0.17 (0.04) % injected dose per gram
same,"Biodistribution of radioactivity, Heart",[1]; 10 min after injection,3.30 (1.02) % injected dose per gram
same,"Biodistribution of radioactivity, Intestine",[1]; 10 min after injection,2.00 (0.86) % injected dose per gram
same,"Biodistribution of radioactivity, Kidney",[1]; 10 min after injection,4.29 (1.25) % injected dose per gram
same,"Biodistribution of radioactivity, Liver",[1]; 10 min after injection,25.64 (6.77) % injected dose per gram
same,"Biodistribution of radioactivity, Lung",[1]; 10 min after injection,6.50 (1.41) % injected dose per gram
same,"Biodistribution of radioactivity, Pancreas",[1]; 10 min after injection,1.58 (0.55) % injected dose per gram
same,"Biodistribution of radioactivity, Spleen",[1]; 10 min after injection,3.00 (0.82) % injected dose per gram
same,"Biodistribution of radioactivity, Stomach",[1]; 10 min after injection,3.76 (0.82) % injected dose per organ
same,"Biodistribution of radioactivity, Blood",[1]; 30 min after injection,5.84 (0.65) % injected dose per gram
same,"Biodistribution of radioactivity, Brain",[1]; 30 min after injection,0.11 (0.02) % injected dose per gram
same,"Biodistribution of radioactivity, Heart",[1]; 30 min after injection,2.72 (0.28) % injected dose per gram
same,"Biodistribution of radioactivity, Intestine",[1]; 30 min after injection,6.81 (2.03) % injected dose per gram
same,"Biodistribution of radioactivity, Kidney",[1]; 30 min after injection,5.24 (0.59) % injected dose per gram
same,"Biodistribution of radioactivity, Liver",[1]; 30 min after injection,27.06 (2.49) % injected dose per gram
same,"Biodistribution of radioactivity, Lung",[1]; 30 min after injection,5.00 (0.34) % injected dose per gram
same,"Biodistribution of radioactivity, Pancreas",[1]; 30 min after injection,1.72 (0.11) % injected dose per gram
same,"Biodistribution of radioactivity, Spleen",[1]; 30 min after injection,3.11 (0.48) % injected dose per gram
same,"Biodistribution of radioactivity, Stomach",[1]; 30 min after injection,8.24 (1.41) % injected dose per organ
same,"Biodistribution of radioactivity, Blood",[1]; 60 min after injection,3.51 (0.34) % injected dose per gram
same,"Biodistribution of radioactivity, Brain",[1]; 60 min after injection,0.08 (0.02) % injected dose per gram
same,"Biodistribution of radioactivity, Heart",[1]; 60 min after injection,1.64 (0.32) % injected dose per gram
same,"Biodistribution of radioactivity, Intestine",[1]; 60 min after injection,9.95 (2.65) % injected dose per gram
same,"Biodistribution of radioactivity, Kidney",[1]; 60 min after injection,3.20 (0.45) % injected dose per gram
same,"Biodistribution of radioactivity, Liver",[1]; 60 min after injection,19.04 (3.61) % injected dose per gram
same,"Biodistribution of radioactivity, Lung",[1]; 60 min after injection,2.78 (0.54) % injected dose per gram
same,"Biodistribution of radioactivity, Pancreas",[1]; 60 min after injection,1.11 (0.18) % injected dose per gram
same,"Biodistribution of radioactivity, Spleen",[1]; 60 min after injection,1.36 (0.54) % injected dose per gram
same,"Biodistribution of radioactivity, Stomach",[1]; 60 min after injection,6.47 (0.85) % injected dose per organ
Thioflavin-S,Kd,[2],μM order
